From US20250145608A1, “KRAS DEGRADING COMPOUNDS COMPRISING ANNULATED 2-AMINO-3-CYANO THIOPHENES” (Boehringer Ingelheim Int'l GmbH Corp., priority 2021, published 2025)
Where two headings read alike, the source gives them in different places.

Assays:
Format in all cases: cell-based
[1] = tested on: SAS cells; experiment: SAS CTG proliferation assay (120 h) (HNSCC, wt amplified)
Protocol: SAS CTG Proliferation Assay (120 h) (HNSCC, Wt Amplified)
(§1) SAS cells (JCRB0260) are dispensed into 384-well plates, flat and clear bottom (Greiner, PNr. 781091) at a density of 300 cells per well in 60 μL DMEM:F12 (Gibco 31330-038)+10% Fetal Calf Serum (HyClone, PNr.: SH30084.03) and incubated at 37° C. in a CO2 incubator overnight. The next day, compounds (10 mM stock in DMSO) are added with the ECHO acoustic liquid handler system (Beckman Coulter), including DMSO controls. Plates are incubated for 120 h, and cell viability is measured using CellTiter-Glo luminescent cell viability reagent (Promega product code G7570). Viability (stated as percent of control) is defined as relative luminescence units RLU of each well divided by the RLU of cells in DMSO controls. IC50 values are determined from viability measurements by non-linear regression using a four-parameter model.

[2] = tested on: SK—CO-1 cells; experiment: SK-CO-1 CTG proliferation assay (120 h) (CRC, G12V); details: Homo sapiens, SK-CO-1 proliferation
Protocol: SK—CO-1 CTG Proliferation Assay (120 h) (CRC, G12V)
as §1, with “SK—CO-1 cells (ATCC” for “SAS cells (JCRB0260)”, “SK—CO-1 cells (ATCC HTB-39) are dispensed” for “SAS cells (JCRB0260) are dispensed”, “density of 500 cells per” for “density of 300 cells per”, “60 μL EMEM (Sigma M5650)+10% Fetal Calf” for “60 μL DMEM:F12 (Gibco 31330-038)+10% Fetal Calf”

[3] = tested on: AsPC-1 cells; experiment: AsPC-1 CTG proliferation assay (120 h) (pancreatic cancer, G12D); details: Homo sapiens, ASPC1, AsPC-1 proliferation
Protocol: AsPC-1 CTG Proliferation Assay (120 h) (Pancreatic Cancer, G12D)
The CTG assay is designed to measure quantitatively the proliferation of AsPC-1 cells (ATCC […]), using the CellTiter Glow Assay Kit (Promega G7571). Cells are grown in RPMI medium (ATCC) supplemented with Fetal Calf Serum (Life Technologies, Gibco BRL, Cat. No. 10270-106). On “day 0” 2000 AsPC-1 cells are seeded in 60 μL RPMI ATCC+10% FCS+ Penstrep in a 384-well plate, flat and clear bottom (Greiner, PNr. 781091). Cells are then incubated in the plates at 37° C. in a CO2 incubator overnight. On day 1, compounds (10 mM stock in DMSO) are added with the ECHO acoustic liquid handler system (Beckman Coulter), including DMSO controls. Plates are incubated for 120 h, and cell viability is measured using CellTiter-Glo luminescent cell viability reagent (Promega product code G7570). Viability (stated as percent of control) is defined as relative luminescence units RLU of each well divided by the RLU of cells in DMSO controls. IC50 values are determined from viability measurements by non-linear regression using a four-parameter model.

[4] = tested on: NCI-H358 cells; experiment: NCI-H358 CTG proliferation assay (120 h) (NSCLC, G12C); details: Homo sapiens
Protocol: NCI-H358 CTG Proliferation Assay (120 h) (NSCLC, G12C)
NCI-H358 cells (ATCC No. CRL-5807) are dispensed into white bottom opaque 96 well plates (Perkin Elmer cat no. 5680) at a density of 2000 cells per well in 100 μL RPMI-1640 ATCC-Formulation (Gibco #A10491)+10% FCS (fetal calf serum) (assay 1) or into black 384-well plates, flat and clear bottom (Greiner, PNr. 781091) at a density of 200 cells per well in 60 μl RPMI-1640 ATCC-Formulation (Gibco #A10491)+10% FCS (fetal calf serum) (assay 2). […] Compounds (10 mM stock in DMSO) are added at logarithmic dose series using the HP Digital Dispenser D300 (Tecan) (assay 1) or the ECHO acoustic liquid handler system (Beckman Coulter) (assay 2), normalizing for added DMSO and including DMSO controls. For the TO time point measurement, untreated cells are analyzed at the time of compound addition. Plates are incubated for 120 h, and cell viability is measured using CellTiter-Glo luminescent cell viability reagent (Promega product code G7570). Viability (stated as percent of control) is defined as relative luminescence units RLU of each well divided by the RLU of cells in DMSO controls. IC50 values are determined from viability measurements by non-linear regression using a four parameter model.

[5] = target: T1, KRAS(G12D) (Homo sapiens, UniProt P01116, G12D); experiment: HiBit degradation assay in GP5d-HiBit-KRAS(G12D) cells (18 h; DC50, Dmax)
T1 construct: introduced immediately downstream of the initiating Methionine codon of the endogenous KRAS locus; host or cells: GP5d-HiBit-KRAS(G12D), a CRISPR knock-in at the endogenous locus
Protocol: A HiBit protein detection tag (amino acid sequence […], Seq ID No 1) was introduced immediately downstream of the initiating Methionine codon of the endogenous KRAS locus (Ensembl gene ID ENSG00000133703.7) of GP5d cells (ECACC Cat. No. 95090715) by CRISPR-based genome engineering using a KRAS(G12D) mutant donor construct encoding the HiBit tag. […] Correct modification of the KRAS locus was assessed by PCR-based genotyping and Sanger sequencing of the isolated PCR products. The resulting cell line is referred to as GP5d-HiBit-KRAS(G12D).
To assess PROTAC-mediated degradation of KRAS(G12D), GP5d-HiBit-KRAS(G12D) cells were seeded at 25000 cells per well in 100 μL Dulbecco's Modified Eagle medium (Sigma cat. no. D6429) supplemented with 10% fetal calf serum into white bottom opaque 96 well plates (Perkin Elmer cat no. 5680). Plates were incubated at 37° C., 5% CO2 in a humidified incubator over night to allow the cells to adhere. […] Plates were further incubated at 37° C. for 18 hours. Following incubation, 100 μL per well Promega Nano-Glo HiBit lytic detection reagent mix (Promega Nano-Glo HiBit Lytic Detection System #N3050), prepared according to the manufacturer's instructions in the kit, were added. To allow for adequate cell lysis, plates were incubated on an orbital shaker for 15 min and further incubated 30 min at room temperature. Upon completion of cell lysis, luminescence was measured using an Envision plate reader using the Ultrasensitive Luminescence Protocol for 96 well plates. Luminescence levels were normalized by the values obtained with DMSO-treated samples and plotted as percent of DMSO control. DC50 values were computed using a four parametric logistic model. Dmax values represent the maximal extent of degradation observed and is stated as percent of control (% Ctrl.) treatments. DC50 and Dmax are reported in Table 64 for representative compounds of the invention.

[6] = tested on: SW620 cells; experiment: SW620 cell proliferation assay (colorectal cancer, G12V), 5 days; details: Homo sapiens, SW-620, 120 h
Protocol: SW620 Cell Proliferation Assay (Colorectal Cancer, G12V)
(§2) SW620 cells (ATCC CCL-227) are dispensed into white bottom opaque 96 well plates (Perkin Elmer cat no. 5680) at a density of 2000 cells per well in 100 μL DMEM (BioWhittaker, Cat #BE12-605F) supplemented with 10% FCS. […] Compounds (10 mM stock in DMSO) are added at logarithmic dose series using the HP Digital Dispenser D300 (Tecan), normalizing for added DMSO. For the TO time point measurement, untreated cells are analysed at the time of compound addition. Plates are incubated for 5 days, and cell viability is measured using CellTiter-Glo luminescent cell viability reagent (Promega, Cat. No G7570). Viability (stated as percent of control) is defined as relative luminescence units RLU of each well divided by the RLU of cells in DMSO controls. IC50 values were computed from relative viability values using a four parametric logistic model.

[7] = tested on: GP5d cells; experiment: GP5d cell proliferation assay (colorectal cancer, G12D), 5 days; details: Homo sapiens, 120 h
Protocol: GP5d Cell Proliferation Assay (Colorectal Cancer, G12D)
as §2, with “GP5d” for “SW620”, “(ECACC 95090715)” for “(ATCC CCL-227)”, “plates” for “plates (Perkin Elmer cat no. 5680)”, “5000” for “2000”

[8] = assay 2, read-out: H358 (assay 2) IC50
[9] = assay 1, read-out: H358 (assay 1) IC50

T1 sequence (P01116 1-188 isoform P01116-2 G12D): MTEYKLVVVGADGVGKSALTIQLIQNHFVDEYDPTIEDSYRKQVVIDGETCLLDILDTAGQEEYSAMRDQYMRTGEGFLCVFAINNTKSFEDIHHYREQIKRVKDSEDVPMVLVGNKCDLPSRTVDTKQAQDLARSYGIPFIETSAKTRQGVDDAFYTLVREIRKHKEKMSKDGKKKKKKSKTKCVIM

IC50 [2] [nM] | IC50 [3] [nM] | IC50 [4, 8] [nM] | DC50 [5] [nM] | Dmax 18 h [5] [% Ctrl] | IC50 [6] [nM] | IC50 [7] [nM] | IC50 [4, 9] [nM] | Structure (SMILES) | IC50 [1] [nM]
1210 | 645 | 253 | 8.9 | 92 |  |  |  | Cc1ncsc1-c1ccc(CNC(=O)[C@@H]2C[C@@H](O)CN2C(=O)C(c2cc(OCCCCN3CCCN(c4nccc(-c5cc([C@@]6(C)CCCc7sc(N)c(C#N)c76)no5)n4)[C@@H](C)C3)no2)C(C)C)cc1 (stereo partly shown) [I-6] | 17000
 |  | 349 | 35.1 | 57 | 9000 | ≥ 9000 | 712 | Cc1ncsc1-c1ccc(CNC(=O)[C@@H]2C[C@@H](O)CN2C(=O)C(c2cc(OCCCCN3CCN(c4nccc(-c5noc([C@@]6(C)CCCc7sc(N)c(C#N)c76)n5)n4)[C@@H](C)C3)no2)C(C)C)cc1 (stereo partly shown) [I-11] | 
 |  | 118 | 42.1 | 86 | 109 | 106 | 407 | Cc1ncsc1-c1ccc(CNC(=O)[C@@H]2C[C@@H](O)CN2C(=O)C(c2cc(OCCCCN3CCCN(c4nccc(-c5cc([C@@]6(C)CCCc7sc(N)c(C#N)c76)sn5)n4)[C@@H](C)C3)no2)C(C)C)cc1 (stereo partly shown) [I-12] | 
 |  | 336 | 45.2 | 87 | 206 | 131 | 468 | Cc1cc(CNC(=O)[C@@H]2C[C@@H](O)CN2C(=O)C(c2cc(OCCCCN3CCCN(c4nccc(-c5noc([C@@]6(C)CCCc7sc(N)c(C#N)c76)n5)n4)[C@@H](C)C3)no2)C(C)C)c(F)cc1-c1scnc1C (stereo partly shown) [I-13] | 
 |  |  | 6.7 | 93 | 29 | 23.5 | 346 | CC(C)C(C(=O)N1C[C@H](O)C[C@H]1C(=O)NCc1ccc(-n2ccnc2)cc1)c1cc(OCCCCN2CCCN(c3nccc(-c4noc([C@@]5(C)CCCc6sc(N)c(C#N)c65)n4)n3)[C@@H](C)C2)no1 (stereo partly shown) [I-19] | 
 |  | 377 | 8.6 | 89 | 83.9 | 92.4 | 439 | CC(C)C(C(=O)N1C[C@H](O)C[C@H]1C(=O)NCc1ccc(Cl)cc1)c1cc(OCCCCN2CCCN(c3nccc(-c4noc([C@@]5(C)CCCc6sc(N)c(C#N)c65)n4)n3)[C@@H](C)C2)no1 (stereo partly shown) [I-20] | 
 |  | 527 | 76.7 | 82 | 267 | 857 | 1150 | CC(C)c1ccc(CNC(=O)[C@@H]2C[C@@H](O)CN2C(=O)C(c2cc(OCCCCN3CCCN(c4nccc(-c5noc([C@@]6(C)CCCc7sc(N)c(C#N)c76)n5)n4)[C@@H](C)C3)no2)C(C)C)cc1 (stereo partly shown) [I-23] | 
 |  | 43.8 | 10.6 | 91 | 51.3 | 21.7 | 160 | Cc1ncsc1-c1ccc(CNC(=O)[C@@H]2C[C@@H](O)CN2C(=O)C(C(C)C)n2cc(CCCCCN3CCCN(c4nccc(-c5noc([C@@]6(C)CCCc7sc(N)c(C#N)c76)n5)n4)[C@@H](C)C3)nn2)cc1 (stereo partly shown) [I-34] | 
 |  |  | 523 | 85 | 803 | 2630 | 3550 | Cc1ncsc1-c1ccc(CNC(=O)[C@@H]2C[C@@H](O)CN2C(=O)[C@@H](NC(=O)COCCCN2CCCN(c3nccc(-c4noc([C@@]5(C)CCCc6sc(N)c(C#N)c65)n4)n3)[C@@H](C)C2)C(C)(C)C)cc1 [I-48] | 
